Laboratory results taken from ChEMBL document CHEMBL4813985, “Lead optimization generates selenium-containing miconazole CYP51 inhibitors with improved pharmacological profile for the treatment of fungal infections” (Eur J Med Chem, 2021).
Values after ≈ are worked out from the molar mass of the structure shown.

Tests used:
[1] = Metabolic stability in mouse liver microsomes assessed as clearance; format: ADME, Microsome; conditions: read-out: CLH
[2] = Hemolytic activity in rabbit RBC assessed as hemolysis ratio at 16 ug/ml measured after 3 hrs by microplate reader assay relative to control; format: ADME, cell-based, Oryctolagus cuniculus, Erythrocyte; conditions: rabbit red blood cells (erythrocytes), at 16 µg/mL, read-out: Activity
[3] = test system: Candida albicans; assay: Anti-biofilm activity in Candida albicans CPCC400616 assessed as inhibition of biofilm formation incubated for 24 hrs with 3 hrs precultured fungal suspension by XTT assay; format: functional
[4] = Hemolytic activity in rabbit RBC assessed as hemolysis ratio at 2 ug/ml measured after 3 hrs by microplate reader assay relative to control; format: ADME, cell-based, Oryctolagus cuniculus, Erythrocyte; conditions: rabbit red blood cells (erythrocytes), at 2 µg/mL, read-out: Activity
[5] = test system: Candida albicans; assay: Antifungal activity against fluconazole-resistant Candida albicans 17# assessed as inhibition of microbial growth after 24 hrs by broth microdilution method; format: functional
[6] = test system: Candida albicans; assay: Antifungal activity against fluconazole-resistant Candida albicans 901 assessed as inhibition of microbial growth after 24 hrs by broth microdilution method; format: functional
[7] = test system: Candida albicans; assay: Anti-biofilm activity in Candida albicans CPCC400616 assessed as inhibition of biofilm formation incubated for 24 hrs with 1.5 hrs precultured fungal suspension by XTT assay; format: functional
[8] = test system: Candida albicans; assay: Antifungal activity against Candida albicans CPCC400616 measured after 24 hrs by broth microdilution assay; format: functional
[9] = test system: Candida parapsilosis; assay: Antifungal activity against Candida parapsilosis ATCC 22019 measured after 24 hrs by broth microdilution assay; format: functional; conditions: Lodderomyces parapsilosis
[10] = test system: Candida albicans; assay: Antifungal activity against Candida albicans ATCC SC5314 measured after 24 hrs by broth microdilution assay; format: functional
[11] = Metabolic stability in mouse liver microsomes assessed as half life; format: ADME, Microsome
[12] = test system: [Candida] zeylanoides; assay: Antifungal activity against Candida zeylanoides CMGCC2.3739 measured after 24 hrs by broth microdilution assay; format: functional; conditions: Dujonia zeylanoides
[13] = test system: MDA-MB-231; assay: Cytotoxicity against human MDA-MB-231 cells assessed as reduction in cell viability incubated for 96 hrs by MTT assay; conditions: MDA-MB-231, 96 h
[14] = test system: HL-60; assay: Cytotoxicity against human HL-60 cells assessed as reduction in cell viability incubated for 96 hrs by MTT assay; format: cell-based; conditions: HL-60, 96 h
[15] = test system: Nakaseomyces glabratus; assay: Antifungal activity against Candida glabrata measured after 24 hrs by broth microdilution assay; format: functional
[16] = test system: Candida albicans; assay: Fungicidal activity against Candida albicans CPCC400616 assessed as fungal killing incubated for 48 hrs followed by culturing on PDA plate for 24 hrs; format: functional; conditions: time 72 hrs
[17] = test system: PC-3; assay: Cytotoxicity against human PC3 cells assessed as reduction in cell viability incubated for 96 hrs by MTT assay; format: cell-based; conditions: PC-3, 96 h, read-out: IC50
[18] = test system: Candida albicans; assay: Antifungal activity against fluconazole-resistant Candida albicans 904 assessed as inhibition of microbial growth after 24 hrs by broth microdilution method; format: functional
[19] = Hemolytic activity in rabbit RBC assessed as hemolysis ratio at 8 ug/ml measured after 3 hrs by microplate reader assay relative to control; format: ADME, cell-based, Oryctolagus cuniculus, Erythrocyte; conditions: rabbit red blood cells (erythrocytes), at 8 µg/mL, read-out: Activity
[20] = test system: Candida albicans; assay: Antifungal activity against fluconazole-resistant Candida albicans 632 assessed as inhibition of microbial growth after 24 hrs by broth microdilution method; format: functional
[21] = test system: Candida albicans; assay: Anti-biofilm activity in Candida albicans CPCC400616 assessed as inhibition of biofilm formation incubated for 24 hrs with 24 hrs precultured fungal suspension by XTT assay; format: functional
[22] = test system: Aspergillus fumigatus; assay: Antifungal activity against Aspergillus fumigatus CMGCC3.7795 measured after 72 hrs by broth microdilution assay; format: functional
[23] = Hemolytic activity in rabbit RBC assessed as hemolysis ratio at 1 ug/ml measured after 3 hrs by microplate reader assay relative to control; format: ADME, cell-based, Oryctolagus cuniculus, Erythrocyte; conditions: rabbit red blood cells (erythrocytes), at 1 µg/mL, read-out: Activity
[24] = test system: Candida albicans; assay: Antifungal activity against fluconazole-resistant Candida albicans CaR assessed as inhibition of microbial growth after 24 hrs by broth microdilution method; format: functional
[25] = test system: Candida albicans; assay: Potency index, ratio of fluconazole MIC to test compound MIC for Candida albicans CPCC400616 measured after 24 hrs by broth microdilution assay; format: functional
[26] = Hemolytic activity in rabbit RBC assessed as hemolysis ratio at 4 ug/ml measured after 3 hrs by microplate reader assay relative to control; format: ADME, cell-based, Oryctolagus cuniculus, Erythrocyte; conditions: rabbit red blood cells (erythrocytes), at 4 µg/mL, read-out: Activity
[27] = test system: Candida albicans; assay: Anti-biofilm activity in Candida albicans CPCC400616 assessed as inhibition of biofilm formation incubated for 24 hrs with 6 hrs precultured fungal suspension by XTT assay; format: functional
[28] = test system: MCF-10A; assay: Cytotoxicity against human MCF-10A cells assessed as reduction in cell viability incubated for 96 hrs by MTT assay; format: cell-based; conditions: read-out: IC50
[29] = test system: Pichia kudriavzevii; assay: Antifungal activity against Candida krusei AS2.1045 measured after 24 hrs by broth microdilution assay; format: functional
[30] = test system: Cryptococcus neoformans; assay: Antifungal activity against Cryptococcus neoformans CMGCC2.3161 measured after 72 hrs by broth microdilution assay; format: functional

SMILES	hemolysis at 3 h, 16 ug/ml [2] [%]	hemolysis at 3 h, 2 ug/ml [4] [%]	MIC [5] [µg/mL]	MIC [6] [µg/mL]	MIC [8] [µg/mL]	MIC [9] [µg/mL]	MIC [10] [µg/mL]	MIC [12] [µg/mL]	IC50 [13] [µM]	IC50 [14] [µM]	MIC [15] [µg/mL]	IC50 [17] [µM]	MIC [18] [µg/mL]	hemolysis at 3 h, 8 ug/ml [19] [%]	MIC [20] [µg/mL]	MIC [22] [µg/mL]	hemolysis at 3 h, 1 ug/ml [23] [%]	MIC [24] [µg/mL]	Ratio [25]	hemolysis at 3 h, 4 ug/ml [26] [%]	also measured
CCc1ccccc1[Se]C(Cn1ccnc1)c1ccc(F)cc1F (stereo not given)	100	0	0.5	2	0.06 (≈ 0.153 µM)	0.03 (≈ 0.0767 µM)	0.03 (≈ 0.0767 µM)	0.25 (≈ 0.639 µM)	26.2	16.9	0.5 (≈ 1.28 µM)	30.2	0.5	100	1	16 (≈ 40.9 µM)	0	0.5	8	93.6	CLint scaled [1]: 368 mL/min/kg; MIC50 [3]: 16 µg/mL (≈ 40.9 µM); MIC80 [3]: > 128 µg/mL; MIC50 [7]: 8 µg/mL (≈ 20.4 µM); MIC80 [7]: 128 µg/mL (≈ 327 µM); half-life [11]: 14.9 min; MFC99 [16]: 0.25 µg/mL (≈ 0.639 µM); MIC50 [21]: > 128 µg/mL; MIC80 [21]: > 128 µg/mL; MIC50 [27]: > 128 µg/mL; MIC80 [27]: > 128 µg/mL; IC50 [28]: 28.1 µM; MIC [29]: 0.06 µg/mL (≈ 0.153 µM); MIC [30]: 1 µg/mL (≈ 2.56 µM)
Fc1cccc([Se]C(Cn2ccnc2)c2ccc(Cl)cc2Cl)c1 (stereo not given)	100	0	1	1	0.25 (≈ 0.604 µM)	0.25 (≈ 0.604 µM)	0.06 (≈ 0.145 µM)	0.25 (≈ 0.604 µM)	13.4	8.26	1 (≈ 2.41 µM)	20.4	1	94.6	0.5	4 (≈ 9.66 µM)	0	2	8	87.7	CLint scaled [1]: 531 mL/min/kg; MIC50 [3]: 8 µg/mL (≈ 19.3 µM); MIC80 [3]: 128 µg/mL (≈ 309 µM); MIC50 [7]: 4 µg/mL (≈ 9.66 µM); MIC80 [7]: 16 µg/mL (≈ 38.6 µM); half-life [11]: 10.3 min; MIC50 [21]: > 128 µg/mL; MIC80 [21]: > 128 µg/mL; MIC50 [27]: 128 µg/mL (≈ 309 µM); MIC80 [27]: > 128 µg/mL; IC50 [28]: 28.6 µM; MIC [29]: 0.13 µg/mL (≈ 0.314 µM); MIC [30]: 0.13 µg/mL (≈ 0.314 µM)
Cc1ccc(C)c([Se]C(Cn2ccnc2)c2ccc(Cl)cc2Cl)c1 (stereo not given)	100	0.89	0.13	0.25	0.25 (≈ 0.589 µM)	0.5 (≈ 1.18 µM)	0.03 (≈ 0.0707 µM)	2 (≈ 4.71 µM)	6.61	6.95	0.5 (≈ 1.18 µM)	7.25	0.25	100	0.5	16 (≈ 37.7 µM)	0	0.25	8	84.4	IC50 [28]: 27.2 µM; MIC [29]: 0.5 µg/mL (≈ 1.18 µM); MIC [30]: 0.5 µg/mL (≈ 1.18 µM)
